The values below come from patent US12410160B2 (Gilead Sciences, Inc., priority 2021, dated 2025).

Where two headings read alike, the source gives them in different places.

As usually defined, the EC50 is the concentration giving half of the maximal effect. Usually IC50 stands for the point on the concentration scale where inhibition reaches its midpoint.

Test [1] has as its target KHK-C expressed in NRK-52E cells (Homo sapiens (Human), UniProt P50053). Kind of test: KHK-C Cell-based Assay (EC50), NRK CTG, fructose-mediated ATP-depletion.
The target of the next test is human KHK-C (Homo sapiens (Human), UniProt P50053). Kind of test: KHK Biochemical Assay (IC50), ADP-Glo, KHK-C. To be noted: average of at least two separate assays. The method in brief:
(§1)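 ADP-Glo luminescence measured ADP made over a 4 h room-temperature reaction of ATP plus fructose, started after 30 min compound–enzyme pre-incubation. Buffer: 50 mM Hepes pH 7.4, 140 mM KCl, 5 mM MgCl2, 0.01% Triton-X. Enzyme was His-tagged, BL21 (DE3)-expressed, Ni-NTA-purified; compounds in 1:3 DMSO dilution series.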
For orientation: ADP-Glo turns the ADP formed in a reaction into a luminescent signal.

The test system of another test is HepG2 cells. Nature of the test: F1P Cell-Based Assay (EC50), 13C6-fructose-1-phosphate in HepG2 cells (cell culture medium or 50% human plasma).
The target in a further test is human KHK-A (Homo sapiens (Human), UniProt P50053). Kind of test: KHK Biochemical Assay (IC50), ADP-Glo, KHK-A. The note with it: average of at least two separate assays. Put shortly:
as §1

Where [2] appears, read: Homo sapiens, HepG2, HepG2 cells, 50% human plasma, read-out: F1P 50% HP EC50.
Where [3] appears, read: Homo sapiens, HepG2, read-out: F1P 10% FBS EC50, HepG2 cells, cell culture medium (10% FBS).
Where [4] appears, read: read-out: NRK CTG EC50, NRK-52E cells, Cell-Titer Glo, 25 mM fructose.
The mark [5] stands for this setting: HepG2 cells, 50% human plasma, read-out: F1P 50% HP EC50.
Setting [6] is: read-out: F1P 10% FBS EC50, HepG2 cells, cell culture medium (10% FBS).

Chain of human KHK-A (P50053 other isoform, or with tags, fused parts or gaps): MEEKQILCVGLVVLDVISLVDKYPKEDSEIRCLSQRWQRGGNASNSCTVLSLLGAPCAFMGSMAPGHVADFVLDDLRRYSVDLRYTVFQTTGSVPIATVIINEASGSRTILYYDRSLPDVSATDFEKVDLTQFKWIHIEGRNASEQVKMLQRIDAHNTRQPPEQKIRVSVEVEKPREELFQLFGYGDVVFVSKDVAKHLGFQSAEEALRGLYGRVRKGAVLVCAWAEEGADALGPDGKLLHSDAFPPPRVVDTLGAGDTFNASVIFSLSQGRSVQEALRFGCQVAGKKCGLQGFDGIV
Chain of human KHK-C (P50053 whole entry): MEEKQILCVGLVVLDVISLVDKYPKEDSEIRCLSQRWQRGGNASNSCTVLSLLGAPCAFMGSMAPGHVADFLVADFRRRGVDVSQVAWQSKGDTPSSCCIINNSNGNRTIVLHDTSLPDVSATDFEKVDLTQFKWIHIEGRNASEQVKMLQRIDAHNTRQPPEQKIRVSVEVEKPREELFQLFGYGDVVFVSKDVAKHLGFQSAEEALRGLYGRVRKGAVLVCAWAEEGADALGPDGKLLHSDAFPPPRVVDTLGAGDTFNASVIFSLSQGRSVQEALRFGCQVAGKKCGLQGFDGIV
Chain of KHK-C expressed in NRK-52E cells (P50053 whole entry): as above

Turning to `C[C@H]1[C@H](O)CN1c1nc(-c2ccc3c(c2)OCC32CN(CCO)C(=O)N2)c2c(n1)C(F)(F)CC2` (stereo partly drawn) [Example 700, 6-[7,7-difluoro-2-[(2S,3R)-3-hydroxy-2-methyl-azetidin-1-yl]-5,6-dihydrocyclopenta[d]pyrimidin-4-yl]-1′-(2-hydroxyethyl)spiro[2H-benzofuran-3,4′-imidazolidine]-2′-one], the figures for the EC50 (in test [1]; in the test with HepG2 cells (setting [2]); in the test with HepG2 cells (setting [3])) were 37.3 nM, 250 nM and 163 nM, respectively. For the same compound, the values for the IC50 against human KHK-C and at human KHK-A were 0.2 nM and 16.1 nM, respectively.
On to `C[C@H]1[C@H](O)CN1c1nc(-c2ccc(C#N)c(S(C)(=N)=O)c2)c2c(n1)C(F)(F)CC2` (some centres unmarked) [Example 798], for which the EC50 is over 500 nM in test [1], 93.5 nM in the test on HepG2 cells (setting [2]) and 120 nM with HepG2 cells (setting [3]). Further, the IC50 at human KHK-C (ADP-Glo) is 51.9 nM; against human KHK-A (ADP-Glo), 70.1 nM.
As for `COc1ccc(-c2nc(N3C[C@@H](F)[C@@H]3C)nc3c2CCC3(F)F)cc1[S@@](C)(=N)=O` [Example 561, (S)-(5-(7,7-difluoro-2-((2S,3R)-3-fluoro-2-methylazetidin-1-yl)-6,7-dihydro-5H-cyclopenta[d]pyrimidin-4-yl)-2-methoxyphenyl)(imino)(methyl)-λ^6-sulfanone], the EC50 stood at 8 nM in test [1], 24.6 nM with HepG2 cells (setting [2]) and 3.5 nM with HepG2 cells (setting [3]). Also, the IC50 against human KHK-C turned out to be 1.1 nM; against human KHK-A, 0.2 nM.
For `C[C@H]1[C@H](O)CN1c1nc(-c2ccc3c(c2)OCC32CN(C)C(=O)N2)c2c(n1)C(F)(F)CC2` (stereo partly drawn) [Example 695, 6-[7,7-difluoro-2-[(2S,3R)-3-hydroxy-2-methyl-azetidin-1-yl]-5,6-dihydroeyelopenta[d]pyrimidin-4-yl]-1′-methyl-spiro[2H-benzofuran-3,4′-imidazolidine]-2′-one], the EC50 in test [1] came to 10.3 nM; in the test on HepG2 cells (setting [2]), 213 nM; in the test with HepG2 cells (setting [3]), 27.1 nM. Also, the concentration for half-maximal inhibition (IC50) on human KHK-C came out at 0.5 nM; against human KHK-A, 16.2 nM.
Taken in the same sequence, the figures for `CCN1C(=O)N[C@]2(COc3cc(-c4nc(N5C[C@@H](O)[C@@H]5C)nc5c4CCC5(F)F)ccc32)C1=O` (single isomer, unassigned) [Example 697] were 3.7 nM, 23.7 nM, 20.1 nM, 0.1 nM and 8.6 nM.
Taken in the same sequence, the figures for `COc1ccc(-c2nc(N3C[C@@H](O)[C@@H]3C)nc3c2CCC3(F)F)cc1[S@](C)(=N)=O` (single isomer, unassigned) [Example 496] were 65.4 nM, 23.9 nM, 9 nM, 7.6 nM and 14.4 nM.
On to `CCN1C(=O)N[C@@]2(COc3cc(-c4nc(N5C[C@@H](O)[C@@H]5C)nc5c4CCC5(F)F)ccc32)C1=O` (single isomer, unassigned) [Example 698], for which the EC50 in test [1] (setting [4]) is 71.5 nM; in the test with HepG2 cells (setting [5]) it was 267 nM; in the test with HepG2 cells (setting [6]), 152 nM. Further, the IC50 turned out to be 5.6 nM against human KHK-C and 47.4 nM against human KHK-A.
Turning to `C[C@H]1[C@H](O)CN1c1nc(-c2cnc3c(c2)OC[C@@H]3NS(C)(=O)=O)c2c(n1)C(F)(F)CC2` (single isomer, unassigned) [Example 823], the EC50 worked out at 56.3 nM in test [1] (read-out: NRK CTG EC50, NRK-52E cells, Cell-Titer Glo, 25 mM fructose, 48 hours); 216 nM in the test with HepG2 cells (setting [5]); 90.6 nM in the test on HepG2 cells (setting [6]). Further, the IC50 is 6.4 nM against human KHK-C (ADP-Glo) and 48.2 nM at human KHK-A (ADP-Glo).
As for `COc1ccc(-c2nc(N3C[C@@](C)(O)[C@@H]3C)nc3c2CCC3(F)F)cc1[S@@](C)(=N)=O` [Example 828, (S)-(5-(7,7-difluoro-2-((2S,3R)-3-hydroxy-2,3-dimethylazetidin-1-yl)-6,7-dihydro-5H-cyclopenta[d]pyrimidin-4-yl)-2-methoxyphenyl)(imino)(methyl)-16-sulfanone], the EC50 came to 43.1 nM in test [1], 12.7 nM with HepG2 cells (setting [2]) and 6.4 nM in the test on HepG2 cells (setting [3]). In addition, the IC50 against human KHK-C (ADP-Glo) was found to be 9.5 nM; at human KHK-A (ADP-Glo), 2 nM.
`C[C@H]1[C@H](O)CN1c1nc(-c2ccc3c(c2)OC[C@@]32NC(=O)N(C)C2=O)c2c(n1)C(F)(F)CC2` (single isomer, unassigned) [Example 826]: the EC50 in test [1] amounted to 4.2 nM; in the test on HepG2 cells (setting [2]), 16.8 nM; with HepG2 cells (setting [3]), 15.7 nM. For the same compound, the IC50 at human KHK-C (ADP-Glo) was 0.3 nM; against human KHK-A (ADP-Glo) it was 12.3 nM.
With `CC1OC[C@@]2(COc3cc(-c4nc(N5C[C@@H](O)[C@@H]5C)nc5c4CCC5(F)F)ccc32)NC1=O` (single isomer, unassigned) [Example 559], the results for the EC50 (in test [1] (setting [4]); in the test on HepG2 cells (setting [5]); with HepG2 cells (setting [6])) were 3.2 nM, 16.3 nM and 5.6 nM, respectively. In addition, the IC50 against human KHK-C turned out to be 0.2 nM; on human KHK-A, 7.8 nM.
Consider `C[C@H]1[C@H](O)CN1c1nc(-c2ccc(OC(F)F)c([S@@](C)(=N)=O)c2)c2c(n1)C(F)(F)CC2` (single isomer, unassigned) [Example 533], for which the EC50 came to 18.2 nM in test [1], 8.9 nM with HepG2 cells (setting [2]) and 7.3 nM in the test on HepG2 cells (setting [3]). The results for the IC50 at human KHK-C and at human KHK-A were 3.8 nM and 4.4 nM, respectively.
Take `C[C@H]1[C@H](O)CN1c1nc(-c2ccc(OC(F)(F)F)c(S(C)(=N)=O)c2)c2c(n1)C(F)(F)CC2` (stereo partly drawn) [Example 564, (5-(7,7-difluoro-2-((2S,3R)-3-hydroxy-2-methylazetidin-1-yl)-6,7-dihydro-5H-cyclopenta[d]pyrimidin-4-yl)-2-(trifluoromethoxy)phenyl)(imino)(methyl)-λ^6-sulfanone]: the EC50 in test [1] came to 98.1 nM; in the test on HepG2 cells (setting [2]), 142 nM; in the test on HepG2 cells (setting [3]) it was 38.5 nM. Moreover, the values for the IC50 at human KHK-C and against human KHK-A were 24.4 nM and 11.6 nM, respectively.
For `C[C@H]1[C@H](O)CN1c1nc(-c2ccc3c(c2)OCC32NC(=O)N(C)C2=O)c2c(n1)C(F)(F)CC2` (stereo partly drawn) [Example 819, 6-[7,7-difluoro-2-[(2S,3R)-3-hydroxy-2-methyl-azetidin-1-yl]-5,6-dihydrocyclopenta[d]pyrimidin-4-yl]-3′-methyl-spiro[2H-benzofuran-3,5′-imidazolidine]-2′,4′-dione], the EC50 in test [1] was 2 nM; with HepG2 cells (setting [2]) it was 10.4 nM; in the test on HepG2 cells (setting [3]), 2.9 nM. Also, the IC50 against human KHK-C (ADP-Glo) came out at 0.2 nM; on human KHK-A (ADP-Glo), 14.6 nM.
Taken in the same sequence, the figures for `C[C@H]1CCN1c1nc2c(c(-c3ccc(C4(N)CCC4)cc3)n1)CCC2` [Example 312, (S)-1-(4-(2-(2-methylazetidin-1-yl)-6,7-dihydro-5H-cyclopenta[d]pyrimidin-4-yl)phenyl)cyclobutan-1-amine] were 2.1 nM, 9.3 nM, 3.9 nM, 0.9 nM and 1.2 nM.
Regarding `C[C@H]1[C@H](O)CN1c1nc(-c2cc3c(c(S(N)(=O)=O)c2)OCC3)c2c(n1)C(F)(F)CC2` [Example 351, 5-(7,7-difluoro-2-((2S,3R)-3-hydroxy-2-methylazetidin-1-yl)-6,7-dihydro-5H-cyclopenta[d]pyrimidin-4-yl)-2,3-dihydrobenzofuran-7-sulfonamide], the EC50 in test [1] is 97.2 nM; in the test on HepG2 cells (setting [2]), 42.9 nM; in the test with HepG2 cells (setting [3]) it was 27.4 nM. Moreover, the IC50 against human KHK-C (ADP-Glo) was found to be 4.1 nM; against human KHK-A (ADP-Glo), 6.4 nM.
As to `C[C@H]1[C@H](O)CN1c1nc(-c2ccc3c(c2)COC[C@@]32COC(=O)N2)c2c(n1)C(F)(F)CC2` (single isomer, unassigned) [Example 555], the EC50 was 29 nM in test [1] (setting [4]), 117 nM with HepG2 cells (setting [5]) and 59.7 nM in the test with HepG2 cells (setting [6]). For the same compound, the IC50 against human KHK-C was 1.2 nM; against human KHK-A, 30.5 nM.
With `C[C@H]1[C@H](O)CN1c1nc(-c2ccc3c(c2)CC[C@]32NC(=O)N(C)C2=O)c2c(n1)C(F)(F)CC2` [Example 488, (58)-5′-[7,7-difluoro-2-[(2S,3R)-3-hydroxy-2-methyl-azetidin-1-yl]-5,6-dihydrocyclopenta[d]pyrimidin-4-yl]-3-methyl-spiro[imidazolidine-5,1′-indane]-2,4-dione], the results for the EC50 (in test [1]; with HepG2 cells (setting [2]); in the test on HepG2 cells (setting [3])) were 4.1 nM, 44.4 nM and 28.7 nM, respectively. Besides, the IC50 worked out at 0.1 nM against human KHK-C and 10.6 nM against human KHK-A.
In the case of `C[C@H]1[C@H](O)CN1c1nc(-c2ccc3c(c2)OCC32NC(=O)N(CC(F)(F)F)C2=O)c2c(n1)C(F)(F)CC2` (stereo partly drawn) [Example 699, 6-[7,7-difluoro-2-[(2S,3R)-3-hydroxy-2-methyl-azetidin-1-yl]-5,6-dihydrocyclopenta[d]pyrimidin-4-yl]-3′-(2,2,2-trifluoroethyl)spiro[2H-benzofuran-3,5′-imidazolidine]-2′,4′-dione], the EC50 in test [1] was 32.8 nM; with HepG2 cells (setting [2]), 492 nM; in the test with HepG2 cells (setting [3]), 85.2 nM. In addition, the IC50 is 0.3 nM at human KHK-C and 88.7 nM at human KHK-A.
